Test results published in US9295624B2, “Amide derivative and whitening agent” (AJINOMOTO CO. INC., priority 2009, dated 2016).

system: B16 melanom; assay: Melanin production suppression test; format: cell-based; conditions: B16 melanoma cells, 3 days incubation, absorbance at 450 nm of medium, control = 100%; read-out: 50% melanin production-suppressive concentration IC50
Experimental: B16 melanom (purchased from Dainippon Sumitomo Pharma Co., Ltd.) was cultured in DMEM (Dulbecco's Modified Eagle Medium, high glucose, containing 10% serum). After confluent, the cells were trypsinized and seeded in a 96-well plate. On the following day, after adhesion of the cells to the plate, the medium was replaced with DMEM containing each evaluation sample (control (no sample addition), sample of each Production Example) at a given evaluation concentration (diluted from […] according to sample), and the cells were incubated for 3 days. The 96-well plate was shaken in a plateshaker for 5 minutes, the absorbance at 450 nm was measured by a microplatereader (Benchmark microplatereader, manufactured by BIORAD), and the amount of melanin in the medium in each well was compared. The absorbance at 3 days after addition of a given concentration of each sample was shown in relative percentage based on the measurement value (absorbance) of control (no sample addition) as 100%. As Comparative Example, a similar test was performed using kojic acid (KoA), 4-hexylresorcinol, CS (N-(p-coumaroyl)serotonin or N-[2-(5-hydroxy-1H-indol-3-yl)ethyl]-3-(4-hydroxyphenyl)-2-propenamide) and FS (N-feruloylcoumaroylserotonin or N-[2-(5-hydroxy-1H-indol-3-yl)ethyl]-3-(4-hydroxy-3-methoxyphenyl-2-propenamide). The results are shown in FIGS. 1 to 5. The concentration necessary for suppressing production of melanin in each sample by 50%, based on the amount of melanin in the control as 100%, was calculated as 50% melanin production-suppressive concentration IC50 (μM). The results are shown in Table 2.
Kojic acid (KoA) used was purchased from Sigma-Aldrich Japan K.K., 4-n-hexylresorcinol used was purchased from TOKYO CHEMICAL INDUSTRY CO., LTD., and CS and FS used were synthesized by Ajinomoto Co., Inc.

For `COc1cc(C=CC(=O)NCCc2c[nH]c3ccc(O)cc23)ccc1O` [FS, reference compound], the IC50 was 42.4 µM.

same assay, conditions: Mus musculus, 72 h; B16 melanoma cells, 3 days incubation, absorbance at 450 nm of medium, control = 100%; read-out: 50% melanin production-suppressive concentration IC50

Going from `O=C(NCCc1c[nH]c2ccc(O)cc12)c1cc(O)cc(O)c1` [Example 36] to `O=C(NCCc1c[nH]c2ccc(O)cc12)c1ccc(O)c(O)c1` [Reference Example 2, reference compound], the IC50 falls from 22.4 µM to 1.9 µM (12-fold). The second is the more potent here.

Going from `CCCCCCc1ccc(O)cc1O` [4-hexylresorcinol, reference compound] to `Cc1cc(/C=C/C(=O)NCCc2c[nH]c3ccc(O)cc23)ccc1O` [Example 17, N-[2-(5-hydroxy-1H-indol-3-yl)ethyl]-3-(3-methyl-4-hydroxyphenyl)-2-propenamide], the IC50 falls from 23.5 µM to 14.6 µM (1.6-fold).

Compared with `O=C(/C=C/c1ccc(O)cc1O)NCCc1c[nH]c2ccc(O)cc12` [Example 4, N-[2-(5-hydroxy-1H-indol-3-yl)ethyl]-3-(2,4-dihydroxyphenyl)-2-propenamide], `O=C(/C=C/c1ccc(O)cc1O)NCCc1c[nH]c2ccccc12` [Example 30] is 1.6-fold higher in IC50: 10.7 µM for the first, 17.1 µM for the second. The first is the more potent here.

`O=C(/C=C/c1ccc(O)cc1)NCCc1c[nH]c2ccccc12` [Example 13] and `O=C(C=Cc1ccc(O)cc1)NCCc1c[nH]c2ccc(O)cc12` [CS, N-[2-(5-hydroxy-1H-indol-3-yl)ethyl]-3-(4-hydroxyphenyl)-2-propenamide, reference compound] are within 1.5-fold of each other in IC50: 21.5 µM for the first, 28.5 µM for the second.

Compared with `COc1ccc(CCNC(=O)/C=C/c2ccc(O)cc2)cc1` [Example 24], `O=c1cc(CO)occ1O` [kojic acid, reference compound] is 9.5-fold higher in IC50: 33.3 µM for the first, 315 µM for the second. The first is the more potent here.

system: B16 melanom; assay: Cytotoxicity test (neutral red assay); format: cell-based; conditions: neutral red assay after melanin test, absorbance at 540 nm
Experimental: After measurement of the absorbance in the melanin production suppression test of Experimental Example 1, the evaluation sample solution was removed from the plate, and each well was rinsed with DMEM (200 μl, high glucose, containing 10% serum). A medium containing NR (neutral red) was added to each well at 200 μl/well, and the plate was left standing for 2 hours at 37° C., 5% CO2 under a saturated vapor. The medium was removed, and a washing fixative solution (mixture of equal amounts of 2 wt % calcium chloride solution and 2 wt % formalin solution) was added at 200 μl/well. After 1 minute, the washing fixative solution was removed. An NR extract (acetic acid-ethanol, 200 μl/well) was added, and the mixture was shaken in a plateshaker for 15 minutes. NR uptake by viable cells was examined by measuring the absorbance of the NR extract at 540 nm by a microplatereader (Benchmark microplatereader, manufactured by BIORAD). The cytotoxicity of each sample was calculated as a relative percentage of the absorbance of NR extract of the cells added with a given concentration of each sample to the measurement value (absorbance) of a control NR extract (no sample) as 100%.

In the case of `O=C(NCCc1c[nH]c2ccc(O)cc12)c1ccc(O)cc1O` [Example 33], the “cytotoxicity (NR uptake by viable cells)” value is reported as “showed cytotoxicity”.
For `O=C(NCCc1c[nH]c2ccc(O)cc12)c1cccc(O)c1O` [Example 32], the “cytotoxicity (NR uptake by viable cells)” value was “showed cytotoxicity”.
